Laboratory results from patent US7745139B1, “Peptides of the AT1 receptor and their uses” (Max-Delbrück-Centrum für Molekulare Medizin, priority 1998, dated 2010).
Entries after “also recorded” stand apart in the source; their conditions may differ.

Tests used:
[1] = test system: anti-AT1 receptor auto-antibodies; test: Neutralisation of patients' antibodies by pre-treatment with AT1 receptor peptides, read out in the cardiomyocyte bioassay; type: cell-based, human; conditions: for Patients' antibodies, pre-treated with peptide (beat frequency bioassay): antibody 1:40 + peptide; for Neutralisation/inhibition of the agonistic effect of the auto-antibodies on the cells: antibodies of preeclampsia patients; for Annulment of the effect of the antibody by epitope peptides: antibodies of hypertension sufferers
Excerpt: (§1) Cultivated neo-natal rat heart cells were used as a bioassay.
To identify and characterise the AT1 receptor antibodies, a sensitive bioassay was used. […] Further, this agonistic effect was neutralised by a peptide corresponding to the second extra-cellular loop of the AT1 receptor. In order to identify the epitopes of the auto-antibodies on the second extra-cellular loops of the angiotensin II AT1 receptor, an attempt was made to neutralise the anti-AT1 receptor auto-antibodies with short overlapping peptides. […] These were the epitopes ENTNIT and AFHYESQ. In preeclampsia patients, the agonistic effect of the antibodies achieved via the AT1 receptor was only neutralised by the peptide AFHYESQ. This epitope has a special importance in this disease, as it was identified in all the patients examined. […] I.

AT1 receptor = biological target: T1, AT1 receptor (Rattus norvegicus, UniProt P25095); test: Bioassay: beat frequency of spontaneously pulsing cultivated neo-natal rat heart cells (cardiomyocytes); type: cell-based; conditions: for Influence of receptor blockers on the positively chronotropic effect of the auto-antibodies: cells stimulated with anti-AT1 receptor auto-antibody; for Influence on the positively chronotropic effect of angiotensin II: cells stimulated with angiotensin II
T1 construct: endogenous in cells; host or cells: primary culture of spontaneously pulsing neonatal rat cardiomyocytes
T1 sequence (P25095 1-359): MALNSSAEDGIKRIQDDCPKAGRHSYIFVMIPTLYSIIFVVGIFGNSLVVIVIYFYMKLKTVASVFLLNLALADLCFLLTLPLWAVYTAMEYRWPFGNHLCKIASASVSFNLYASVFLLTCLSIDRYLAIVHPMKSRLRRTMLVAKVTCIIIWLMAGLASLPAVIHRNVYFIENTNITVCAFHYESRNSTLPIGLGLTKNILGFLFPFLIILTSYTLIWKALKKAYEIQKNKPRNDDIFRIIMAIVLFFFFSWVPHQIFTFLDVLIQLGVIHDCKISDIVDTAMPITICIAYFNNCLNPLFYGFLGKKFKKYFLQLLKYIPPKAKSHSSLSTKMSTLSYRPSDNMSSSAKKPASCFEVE
Excerpt: The bio-assay entails • spontaneously pulsing neo-natal cardiomyocytes in primary culture or • cardiomyocytes differentiated from undifferentiated embryonal stem cells • in one culture medium
as §1
To identify and characterise the AT1 receptor antibodies, a sensitive bioassay was used. […] In order to identify the epitopes of the auto-antibodies on the second extra-cellular loops of the angiotensin II AT1 receptor, an attempt was made to neutralise the anti-AT1 receptor auto-antibodies with short overlapping peptides. […] I.

Compound | Patients' antibodies, pre-treated with peptide (beat frequency bioassay) ([1]; Patient No. 1) | Patients' antibodies, pre-treated with peptide (beat frequency bioassay) ([1]; Patient No. 2) | Neutralisation/inhibition of the agonistic effect of the auto-antibodies on the cells [1] | further results
GYYFDTN [function-analog peptide] | 2.4 ± 0.72 | 2.8 ± 1.20 | neutralise the antibodies | 
SHFYQTR [function-analog peptide] | 0.8 ± 1.16 | 0.8 ± 0.80 | neutralise the antibodies | 
loop II peptides: peptides portraying the part of the AT1 receptor corresponding to loop II (IHRNVFFIENTNITVCAFHYESQNSTL) |  |  | inhibit the antibody effect | Neutralisation/inhibition of the agonistic effect of the auto-antibodies on the cells ([1]; listed as peptide corresponding to the second extra-cellular loop of the AT1 receptor): neutralised
ENTNIT |  |  |  | Annulment of the effect of the antibody by epitope peptides [1]: annul the effect of the antibody
Cc1cc(Cn2cnc3c2C[C@@H](C(=O)O)N(C(=O)C(c2ccccc2)c2ccccc2)C3)ccc1N(C)C [PD 123319] |  |  |  | Influence of receptor blockers on the positively chronotropic effect of the auto-antibodies (AT1 receptor): no influence
CCCCc1nc(Cl)c(CO)n1Cc1ccc(-c2ccccc2-c2nn[nH]n2)cc1 [Losartan] |  |  |  | Influence on the positively chronotropic effect of angiotensin II (AT1 receptor): blocked; Influence on the positively chronotropic effect of angiotensin II (AT1 receptor; listed as Losastan): inhibited; Influence of receptor blockers on the positively chronotropic effect of the auto-antibodies (AT1 receptor): stopped; Influence of receptor blockers on the positively chronotropic effect of the auto-antibodies (AT1 receptor; listed as Losastan): inhibited
angiotensin II [angiotensin-II] |  |  |  | Chronotropic effect on cardiomyocytes (beat frequency / pulsation rate) (AT1 receptor; agonist alone): increase of the beat frequency
AFHYESQ | 1.2 ± 0.84 | 1.6 ± 1.24 | inhibits the effect; also recorded: neutralised | Annulment of the effect of the antibody by epitope peptides [1]: annul the effect of the antibody
